Measured values taken from patent US6121241A, “Anticoagulant peptide aldehyde derivatives” (Gyogyszerkutato Intezet Kft., priority 1996, dated 2000).
Where two headings read alike, the source gives them in different places.

Legend:
urokinase (UK) = urokinase (UK) (Homo sapiens, UniProt P00749); assay: Fibrin-plate method, plasmin formation induced by urokinase; format: biochemical; conditions: for IC50: fibrin-plate method, hydrolyzed area reduced by 50%
Source text: (§1) The inhibitory effect of the new compounds of the invention on plasmin (PL) as well as on plasmin formation induced by tissue plasminagen activator (tPA) and urokinase (UK) was studied by the […] [D. Bagdy et al.; Thromb. Haemost. 67, 325 (1992)]. Compounds C1 and C3 served as controls. […] V. Jackson et al., J. Cardiovasc. Pharmacol. 21, 587 (1993)].
(§2) ^a IC50 = peptide concentration (mM) where the hydrolyzed area o
(§3) the fibrin plate is reduced by 50% compared to the control

plasmin (PL) = plasmin (PL) (Homo sapiens, UniProt P00747); assay: Fibrin-plate method, plasmin; format: biochemical; conditions: for IC50: fibrin-plate method, hydrolyzed area reduced by 50%
Source text: as §1, §2, §3

thrombin time (TT) = assay: Ex vivo TT in citrate plasma of rabbits after p.o. dosing; design: species or system New Zealand white rabbits; conditions: p.o. 5 mg/kg
Experimental: (§4) The anticoagulant and platelet aggregation inhibiting effect of the compounds of general formula (I) was studied In New Zealand white rabbits ex vivo according to D. Bagdy et al [Thromb. Haemost 67. 357 (1992). The compounds were dissolved in buffered isotonic saline solution and administered i.v. (0,04-5.0 mg/kg) or by infusion (0.25-5.0 mg/kg/h) or subcutaneously (0.5-6.0 mg/kg) or p.o. (2.5-20 mg/kg). The effect of the compounds was detectable already within 30 minutes following p.o. administration, peak values were attained after 60-180 minutes and the therapeutic level was maintained dose-dependently for 3→6 hours.
(§5) The in vivo effect of D-cHga Pro-Arg-H (1) is presented in detail in Tables 5 and 6. The corresponding values of C1 are listed as controls. The compound was administered p.o. in doses of 5 mg/kg. The blood samples drawn from the caudal vein in every 30-60 minutes were analyzed. The whole blood clotting time (WBCT) and the inhibition of thrombin-induced blood platelet aggregation (PAI) were determined. The activated partial thromboplastin time (APTT) and the thrombin time (TT) in the citrate plasma obtained from the blood sample were also measured. The APTT and TT values are compiled in Table 5 and the WBCT and PAI values in Table 6.

[1] = biological target: T1, fibrin-gel bound thrombin (Homo sapiens, UniProt P00734); assay: Inhibition of thrombin bound to fibrin-gel (methods M4, M5); format: biochemical; conditions: Tos-Gly-Pro-Arg-pNA substrate
T1 construct: Here prothrombin is converted to thrombin; purchased SIGMA
Experimental: The plasma clot was obtained by the recalcification of platelet-rich human citrate plasma and fibrin gel by the coagulation of human fibrinogen with human thrombin Z-D-Arg-Gly-Arg-pNA and Tos Gly-Pro-Arg-pNA were used as substrates for measuring the activity of factor Xa and thrombin (methods M1-M5).
Preparation of Fibrin-Gel
a) 200 μL of 6 mg/mL human fibrinogen (SIGMA), 25 μL of 25 NIH U/mL human thrombin (SIGMA) and 40 μL of 100 mM calcium chloride solution are placed in each reaction vessel and the mixtures are stored for one hour at 20-22° C. The fibrin formed is rinsed mildly with 3×2 ml of isotonic saline solution followed by sedimentation to remove the thrombin content of the solution. The efficacy of rinsing is controlled by the process described in Method M1, point c).
Assay of the Inhibition of Thrombin Bound to Fibrin-Gel
a) 0.1-1.0-10 and 100 μg/ml solutions are prepared with Hepes/NaCl buffer (0.01 M Hepes and 0.1 M sodium chloride, pH=7.4).
b) Thereafter the procedure described in Method M3, point b) is followed.

[2] = tested on: citrate plasma coagulation (PT); assay: Prothrombin time (PT) plasma clotting test; format: biochemical
Experimental: (§6) Anticoagutant activity (i.e. inhibition of the proteolytic reactions in the process) is measured by anticoagulant tests, e.g. by the thrombin time (TT), activated partial thromboplastin time (APTT) and prothrombin time (PT) tests [E. J. W. Bovie et al; Mayo Clinic Laboratory Manual of Hemostasis; W. B. Sanuders Co., Philadelphia (1971)]. Plasma, inhibited in spontaneous coagulation, e.g. citrate-plasma, is made to coagulate and the required coagulation time is measured. Upon the action of anticoagulants the coagulation time is prolonged proportionally to the inhibition of the reaction(s) in the process. The anticoagulant effect can be characterized by the substance concentration required to double the coagulation time compared to the control (IC50). The effect of anticoagulants on individual coagulant proteases is measured by the amidolytic method [R. Lottenberg et al., Methods in Enzymol. 80, 341 (1981); G. Cleason, Blood Coagulation and Fibrinolysis 5, 411 (1994)]. The isolated active factor (e.g. thrombin, fXa) and its chromogen or fluorogen peptide-amide substrate are reacted in the presence or absence of the inhibitor, resp. The enzyme inhibiting action is characterized by the inhibitory constant (IC50) measured during amidolysis.
(§7) In the TT test coagulation is initiated by the thrombin added to the citrate plasma. In the system 22 pmol/mL of thrombin is functioning and in the presence of plasma components its inhibition can be measured on the fibrinogen (one of the natural substrates of thrombin) present In the APTT and PT tests the full coagulation process is made to proceed. Depending on the activator fX is activated by the extrinsic or intrinsic pathway. The generated fXa activates prothrombin to thrombin which, in turn, triggers plasma coagulation. In the test the coagulation time is prolonged if the enzymes or one of them is inhibited by the inhibitor. In the APTT and PT tests at most 40 pmole/ml Xa is generated (this is the full amount of factor X present in both systems) while 150 pmole/ml (APTT) and 350 pmole/ml (PT) are generated from thrombin [B Kaiser et al., Thromb. Res. 65, 157 (1992)].
(§8) The in vitro anticoagulant effect of the compounds of general formula (I) was measured by the prothrombin time (PT), activated partial thromboplastin time (APTT) and thrombin time (TT) tests [D. Bagdy et at., Thromb. Haemost. 67, 325 (1992)]. The Xa-factor-inhibiting effect of the compounds was also determined by using the Bz-Ile-Glu-Gly-Arg-pNA chromogen substrate (see method M6).

[3] = tested on: activated partial thromboplastin time (APTT); assay: Ex vivo APTT in citrate plasma of rabbits after p.o. dosing; design: species or system New Zealand white rabbits; conditions: p.o. 5 mg/kg
Experimental: as §4, §5

[4] = tested on: citrate plasma coagulation (APTT); assay: Activated partial thromboplastin time (APTT) plasma clotting test; format: biochemical
Experimental: as §6, §7, §8

[5] = related to the activity of C1 (1/IC50 = 1)
[6] = Table 2, concentration doubling clotting time, read-out: A: IC50, PT

Chain of plasmin (PL) (P00747 581-810 limits assumed, species assumed): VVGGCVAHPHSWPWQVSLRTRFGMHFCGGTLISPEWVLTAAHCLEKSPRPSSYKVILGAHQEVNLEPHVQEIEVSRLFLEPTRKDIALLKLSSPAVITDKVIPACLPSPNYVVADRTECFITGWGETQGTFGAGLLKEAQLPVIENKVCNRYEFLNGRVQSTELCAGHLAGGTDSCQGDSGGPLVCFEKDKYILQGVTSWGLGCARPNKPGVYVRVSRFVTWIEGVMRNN
Chain of plasmin (PL) (P00747 97-580 partner limits assumed, species assumed): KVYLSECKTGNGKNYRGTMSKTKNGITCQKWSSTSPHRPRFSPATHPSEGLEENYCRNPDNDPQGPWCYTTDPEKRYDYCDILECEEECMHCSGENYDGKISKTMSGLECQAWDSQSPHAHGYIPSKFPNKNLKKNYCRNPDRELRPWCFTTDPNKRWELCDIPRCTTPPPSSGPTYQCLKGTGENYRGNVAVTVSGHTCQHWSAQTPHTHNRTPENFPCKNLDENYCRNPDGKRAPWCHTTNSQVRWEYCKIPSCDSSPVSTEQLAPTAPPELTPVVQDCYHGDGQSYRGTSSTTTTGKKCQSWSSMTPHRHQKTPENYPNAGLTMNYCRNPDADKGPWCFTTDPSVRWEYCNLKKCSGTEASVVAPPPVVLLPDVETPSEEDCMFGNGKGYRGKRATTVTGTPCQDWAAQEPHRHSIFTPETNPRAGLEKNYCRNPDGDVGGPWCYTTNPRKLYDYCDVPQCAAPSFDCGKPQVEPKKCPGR

SMILES | IC50 (urokinase (UK)) [nM] | IC50 (plasmin (PL)) [nM] | TT relative clotting time (thrombin time (TT); 0 min) | TT relative clotting time (thrombin time (TT); 30 min) | TT relative clotting time (thrombin time (TT); 45 min) | TT relative clotting time (thrombin time (TT); 60 min) | TT relative clotting time (thrombin time (TT); 90 min) | TT relative clotting time (thrombin time (TT); 120 min) | TT relative clotting time (thrombin time (TT); 180 min) | TT relative clotting time (thrombin time (TT); 240 min) | IC50 [1] [nM] | IC50 [2, 6] [nM] | APTT relative clotting time ([3]; 0 min) | APTT relative clotting time ([3]; 30 min) | APTT relative clotting time ([3]; 45 min) | APTT relative clotting time ([3]; 60 min) | APTT relative clotting time ([3]; 90 min) | APTT relative clotting time ([3]; 120 min) | APTT relative clotting time ([3]; 180 min) | APTT relative clotting time ([3]; 240 min) | also measured
CN[C@H](Cc1ccccc1)C(=O)N1CCC[C@H]1C(=O)N[C@H](C=O)CCCNC(=N)N [Compound C1, D-MePhe-Pro-Arg-H] | 82000 | 54000 | 1.0 | 1.52 ± 0.17 | 2.50 ± 0.44 | 4.75 ± 1.38 | 10.50 ± 5.49 | 5.51 ± 3.59 | 2.05 ± 0.38 | 1.81 ± 0.39 | 300 | 2920 | 1.0 | 1.27 ± 0.38 | 1.30 ± 0.02 | 1.37 ± 0.03 | 1.45 ± 0.09 | 1.43 ± 0.11 | 1.39 ± 0.09 | 1.31 ± 0.11 | B: relative efficacy, UK (urokinase (UK); [5]): 1.0; B: relative efficacy, PL (plasmin (PL); [5]): 1.0; IC50 ([2]; read-out: concentration doubling the clotting time in the PT test): 2920 nM; APTT relative clotting time ([3]; 300 min): 1.25 ± 0.22; IC50 ([4]; read-out: concentration doubling the clotting time in the APTT test): 622 nM
N=C(N)NCCC[C@@H](C=O)NC(=O)[C@H]1CCCN1C(=O)C(O)C1CCCCCC1.N=C(N)NCCC[C@@H](C=O)NC(=O)[C@H]1CCCN1C(=O)C(O)C1CCCCCC1.O=S(=O)(O)O (stereo partly drawn) [Compound 1, D-2-Cycloheptyl-2-hydroxyacetyl-L-prolyl-L-arginine aldehyde hemisulfate] | 120000 | 83000 | 1.0 | 10.57 ± 5.98 | 10.89 ± 5.89 | 11.67 ± 5.69 | 14.00 ± 6.48 | 10.60 ± 4.22 | 2.22 ± 0.71 | 1.23 ± 0.07 | 210 | 1200 | 1.0 | 2.01 ± 0.43 | 2.25 ± 0.43 | 2.32 ± 0.43 | 2.11 ± 0.31 | 1.84 ± 0.11 | 1.66 ± 0.10 | 1.37 ± 0.08 | B: relative efficacy, UK (urokinase (UK)): 0.7; times lower activity than compound C3, third enzyme (UK) (urokinase (UK); versus C3 of Table 4): 39; B: relative efficacy, PL (plasmin (PL)): 0.6; times lower activity than compound C3, first enzyme (PL) (plasmin (PL); versus C3 of Table 4): 7.5; TT relative clotting time (thrombin time (TT); 300 min): 1.13 ± 0.05; APTT relative clotting time ([3]; 300 min): 1.31 ± 0.09; IC50 ([4]; Table 2, concentration doubling clotting time, read-out: A: IC50, APTT): 370 nM
